Data from US6261814A, “Carboxylic acid reductase, and methods of using same” (University of Iowa Research Foundation, priority 1998, dated 2001).

How the values were obtained:
[1] = molecular target: T1, carboxylic acid reductase (aryl aldehyde oxidoreductase) (Nocardia iowensis, UniProt Q6RKB1); assay: Substrate specificity of crude carboxylic acid reductase (100,000×g supernatant); type: biochemical, Nocardia sp. NRRL 5646; set-up: Crude enzyme preparations consisting of 100,000×g supernatants were used in this study; endogenous in cells; host or cells: Nocardia sp; NRRL 5646, crude 100,000×g supernatant; conditions: for Relative Activity: 5 mM substrate, 0.15 mM NADPH, 1 mM ATP, 50 mM Tris-HCl pH 7.5, percentage of the initial rate of benzoate reduction; for quality as substrate of the enzyme (in words): substrates of Table 2
T1 sequence (Q6RKB1 whole entry): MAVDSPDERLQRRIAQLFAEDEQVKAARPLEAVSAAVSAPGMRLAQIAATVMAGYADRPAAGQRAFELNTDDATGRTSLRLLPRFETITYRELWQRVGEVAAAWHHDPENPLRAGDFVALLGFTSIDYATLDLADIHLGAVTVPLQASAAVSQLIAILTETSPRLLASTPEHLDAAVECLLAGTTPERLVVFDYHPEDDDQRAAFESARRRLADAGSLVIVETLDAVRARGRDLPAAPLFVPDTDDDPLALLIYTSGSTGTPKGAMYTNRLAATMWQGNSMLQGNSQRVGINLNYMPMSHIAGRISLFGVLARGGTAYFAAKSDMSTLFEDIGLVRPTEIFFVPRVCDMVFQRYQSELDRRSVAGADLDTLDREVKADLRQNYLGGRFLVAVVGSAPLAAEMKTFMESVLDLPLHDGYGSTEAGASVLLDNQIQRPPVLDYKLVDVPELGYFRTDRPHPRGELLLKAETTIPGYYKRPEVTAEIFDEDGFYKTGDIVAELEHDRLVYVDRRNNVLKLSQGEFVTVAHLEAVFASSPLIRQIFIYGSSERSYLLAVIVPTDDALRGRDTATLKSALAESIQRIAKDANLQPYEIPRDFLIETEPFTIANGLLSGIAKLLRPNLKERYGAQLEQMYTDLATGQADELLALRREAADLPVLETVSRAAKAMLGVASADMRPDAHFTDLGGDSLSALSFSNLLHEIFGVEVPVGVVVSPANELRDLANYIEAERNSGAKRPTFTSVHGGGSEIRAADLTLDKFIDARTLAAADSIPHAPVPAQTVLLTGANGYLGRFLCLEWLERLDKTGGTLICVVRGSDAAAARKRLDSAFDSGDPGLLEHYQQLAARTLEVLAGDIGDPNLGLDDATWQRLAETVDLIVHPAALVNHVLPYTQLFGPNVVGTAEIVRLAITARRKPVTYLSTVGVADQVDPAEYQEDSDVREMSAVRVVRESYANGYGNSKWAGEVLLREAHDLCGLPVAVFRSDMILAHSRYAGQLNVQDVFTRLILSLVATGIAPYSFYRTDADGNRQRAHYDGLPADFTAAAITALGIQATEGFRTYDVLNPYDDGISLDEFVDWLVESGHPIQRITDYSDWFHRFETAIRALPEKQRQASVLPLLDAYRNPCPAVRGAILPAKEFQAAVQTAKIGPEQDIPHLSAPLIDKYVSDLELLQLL
Experimental: (§1) Enzyme assay. The standard aryl-aldehyde oxidoreductase assay solution contained 0.15 mM […], 1 mM ATP, and 5 mM sodium benzoate, 10 mM MgCl2 and 0.01 to 0.3 units of enzyme in 50 mM Tris-HCl buffer in a final volume of 0.7 ml. The reference cuvette contained all components except for benzoate. Enzyme reactions were initiated by adding enzyme, and they were monitored by recording the absorption decrease at 340 nm at 25° C. with a Shimadzu 160 spectrophotometer.
Crude enzyme preparations consisting of 100,000×g supernatants were used in this study. […] The relative rate of reduction for each carboxylic acid derivative is expressed as the percentage of the initial rate of benzoate reduction.
The range of oxidoreductase activities of crude, 100,000×g Nocardia extract with a variety of substrates was investigated. Various substituted 2-, 3- and 4-substituted benzoates were examined, including a range of ring-activating and ring-deactivating functional groups. Benzoates substituted with halogens, methyl, methoxy, hydroxy, acetyl, nitro, benzoyl, phenyl, and phenoxyl groups as well as aryl-ring systems containing two (naphthalene) and three (fluorene) rings, and heterocyclic aromatic acids including furoic, nicotinic and indole carboxylic acids were considered. In addition, one cinnamic acid derivative, phenyl-acetate, phenyl-malonate, phenyl-succinate and 2-phenylpropionic acid were studied.

[2] = molecular target: T1, carboxylic acid reductase (aryl aldehyde oxidoreductase); assay: Kinetic properties of the purified carboxylic acid reductase (standard enzyme assay); conditions: for apparent Km relative to Km reported for the enzyme from Nocardia asteroides: higher than values reported by Kato et al.; for turn-over number: calculated assuming pure enzyme and one active site per molecule; for Vmax: mean of three determinations; for type of inhibition: versus benzoic acid
Experimental: as §1
Kinetic constants were obtained by fitting experimental data with the EZ-FIT program developed by Perrella (Perrella, Anal. Biochem. 174:437-447 (1987)).
S(+)-α-Methyl-4-[2-methylpropyl]-benzeneacetic acid (ibuprofen) was from Aldrich Chemical Co. R(-) isomer of ibuprofen was a gift from Dr. Ching-Shih Chen, University of Rhode Island (Chen et al., Biochim. Biophys. Acta 1033:1-6 (1990)). […] Substrate enantiopurities were checked by specific rotation determination for each isomer (Chen and Rosazza, Appl. Environ. Microbiol. 60(4):1292-1296 (1994)).

[3] = molecular target: T2, carboxylic acid reductase (Nocardia iowensis, UniProt Q6RKB1); assay: Enzymatic reduction of vanillic acid to vanillin by purified carboxylic acid reductase; type: biochemical, Nocardia sp. NRRL 5646; conditions: UV spectrophotometric assay at 340 nm; 30° C., 24 hours
T2 construct: isolated and substantially purified from Nocardia sp. strain NRRL 5646; endogenous in cells; host or cells: Nocardia sp; NRRL 5646, benzoate-induced culture; enzyme purified by Mono-Q, Reactive Green 19 agarose and hydroxyapatite chromatography
T2 sequence (Q6RKB1 whole entry): as above
Experimental: The reaction mixture was incubated at 30° C. with gentle shaking for 24 hours, after which the entire reaction mixture was loaded onto a solid phase extraction cartridge (Chem Elut 1200, 200 ml aqueous solution capacity). After 5 min. of equilibration, the cartridge was washed with 2×100 ml of hexane, then washed again with 2×100 ml of dichloromethane (concentrated to less than 2 ml).
The extract was then transferred to a vial and the solvent was removed with a stream of nitrogen to give about 8 mg of the purified vanillin end product.
Mass spectrometry, ^1 H, and ^13 C NMR data confirmed that this compound was vanillin. The yield was determined to be 96% with UV spectrophotometric assay at 340 nm.

O=C(O)c1ccc(C(=O)c2ccccc2)cc1 [4-benzoyl-benzoic acid]
Relative Activity [1]: 6 percentage

O=C(O)CC(C(=O)O)c1ccccc1 (stereo not shown) [phenyl succinic acid]
Relative Activity [1]: 11 percentage
quality as substrate of the enzyme (in words) [1]: slower rates than benzoate

O=C(O)c1ccoc1 [3-furoic acid]
Relative Activity [1]: 22 percentage

O=C(O)c1ccccc1[N+](=O)[O-] [2-nitro-benzoic acid]
Relative Activity [1]: 0 percentage

O=C(O)c1cc2ccccc2[nH]1 [indole-2-carboxylic acid]
Relative Activity [1]: 0 percentage

O=C(O)c1cccc(Cl)c1 [3-chloro-benzoic acid]
Relative Activity [1]: 124 percentage
quality as substrate of the enzyme (in words) [1]: best substrates

O=C(O)c1ccco1 [2-furoic acid]
Relative Activity [1]: 18 percentage

NC(=O)C1=CN([C@@H]2O[C@H](COP(=O)(O)OP(=O)(O)OC[C@H]3O[C@@H](n4cnc5c(N)ncnc54)[C@H](OP(=O)(O)O)[C@@H]3O)[C@@H](O)[C@H]2O)C=CC1 [NADPH]
apparent Km relative to Km reported for the enzyme from Nocardia asteroides [2]: more than 1000 fold

COc1cccc(C=CC(=O)O)c1 [3-methoxy-cinnamic acid]
Relative Activity [1]: 8 percentage

O=C(O)c1ccccc1-c1ccccc1 [2-phenyl-benzoic acid]
Relative Activity [1]: 16 percentage

Cc1ccc(C(=O)O)cc1 [4-toluic acid]
Relative Activity [1]: 82 percentage
quality as substrate of the enzyme (in words) [1]: best substrates

O=C(O)c1cccc(Br)c1 [3-bromo-benzoic acid]
Relative Activity [1]: 105 percentage
quality as substrate of the enzyme (in words) [1]: best substrates

CC(=O)Nc1ccc(C(=O)O)cc1 [4-acetylamino-benzoic acid]
Relative Activity [1]: 22 percentage

O=C(O)c1cccc(F)c1 [3-fluoro-benzoic acid]
Relative Activity [1]: 78 percentage

O=C(O)c1ccc(Br)cc1 [4-bromo-benzoic acid]
Relative Activity [1]: 72 percentage

O=C(O)c1ccccc1F [2-fluoro-benzoic acid]
Relative Activity [1]: 57 percentage

O=C(O)Cc1ccccc1 [phenyl acetic acid]
Relative Activity [1]: 43 percentage
quality as substrate of the enzyme (in words) [1]: slower rates than benzoate

O=C(O)c1cccnc1 [nicotinic acid]
Relative Activity [1]: 5 percentage
quality as substrate of the enzyme (in words) [1]: slower rates than benzoate

O=C(O)c1c[nH]c2ccccc12 [indole-3-carboxylic acid]
Relative Activity [1]: 2 percentage

CC(C(=O)O)c1ccccc1 (stereo not shown) [2-phenyl propionic acid]
Relative Activity [1]: 16 percentage
quality as substrate of the enzyme (in words) [1]: slower rates than benzoate

O=C(O)c1ccc2[nH]ccc2c1 [indole-5-carboxylic acid]
Relative Activity [1]: 10 percentage

CC(C)Cc1ccc([C@@H](C)C(=O)O)cc1 [R(-)-ibuprofen]
turn-over number [2]: 21 min⁻¹
Vmax ([2]; purified enzyme, listed as R(-) isomer): 1.33+0.02 μmol/min/mg of protein
Vmax ([2]; purified enzyme, listed as R-(-)): 0.15 μmol/min/mg of protein

CC(=O)c1ccc(C(=O)O)cc1 [4-acetyl-benzoic acid]
Relative Activity [1]: 20 percentage

O=C(O)c1ccc(-c2ccccc2)cc1 [4-phenyl-benzoic acid]
Relative Activity [1]: 21 percentage

Nc1ncnc2c1ncn2[C@@H]1O[C@H](COP(=O)(O)OP(=O)(O)OP(=O)(O)O)[C@@H](O)[C@H]1O [ATP]
apparent Km relative to Km reported for the enzyme from Nocardia asteroides [2]: more than 1000 fold

O=Cc1ccccc1 [benzaldehyde]
reduction of benzaldehyde to benzyl alcohol ([2]; purified enzyme): did not reduce

CC(=O)c1ccccc1C(=O)O [2-acetyl-benzoic acid]
Relative Activity [1]: 4 percentage

Cc1ccccc1C(=O)O [2-toluic acid]
Relative Activity [1]: 6 percentage

O=C(O)c1cccc2c1Cc1ccccc1-2 [fluorene-1-carboxylic acid]
Relative Activity [1]: 17 percentage

COc1ccc(C(=O)O)cc1 [4-anisic acid]
Relative Activity [1]: 36 percentage

COc1cccc(C(=O)O)c1 [3-anisic acid]
Relative Activity [1]: 87 percentage
quality as substrate of the enzyme (in words) [1]: best substrates

O=C(O)C(C(=O)O)c1ccccc1 [phenyl malonic acid]
Relative Activity [1]: 3 percentage
quality as substrate of the enzyme (in words) [1]: slower rates than benzoate

O=C(O)c1ccc([N+](=O)[O-])cc1 [4-nitro-benzoic acid]
Relative Activity [1]: 0 percentage

O=C(O)c1cccc([N+](=O)[O-])c1 [3-nitro-benzoic acid]
Relative Activity [1]: 0 percentage

O=C(O)c1ccc(Oc2ccccc2)cc1 [4-phenoxy-benzoic acid]
Relative Activity [1]: 11 percentage

CC(=O)Nc1ccccc1C(=O)O [2-acetylamino-benzoic acid]
Relative Activity [1]: 0 percentage

COc1ccccc1C(=O)O [2-anisic acid]
Relative Activity [1]: 3 percentage

O=C(O)c1ccc(O)cc1 [4-hydroxyl-benzoic acid]
Relative Activity [1]: 6 percentage

O=C(O)c1ccc2ccccc2c1 [2-naphthoic acid]
Relative Activity [1]: 95 percentage
quality as substrate of the enzyme (in words) [1]: best substrates

CC(C)Cc1ccc([C@H](C)C(=O)O)cc1 [S(+)-ibuprofen, S(+)-α-Methyl-4-[2-methylpropyl]-benzeneacetic acid]
turn-over number [2]: 186 min⁻¹
Vmax ([2]; purified enzyme, listed as S(+) isomer): 0.148±0.003 μmol/min/mg of protein
Vmax ([2]; purified enzyme, listed as S-(+)): 1.33 μmol/min/mg of protein

Cc1cccc(C(=O)O)c1 [3-toluic acid]
Relative Activity [1]: 4 percentage

O=C(O)c1cccc2ccccc12 [1-naphthoic acid]
Relative Activity [1]: 77 percentage

O=C(O)c1ccccc1O [2-hydroxyl-benzoic acid]
Relative Activity [1]: 0 percentage

O=C(O)c1cccc2[nH]ccc12 [indole-4-carboxylic acid]
Relative Activity [1]: 0 percentage

O=C(O)c1ccccc1Br [2-bromo-benzoic acid]
Relative Activity [1]: 5 percentage

O=C(O)c1ccc(F)cc1 [4-fluoro-benzoic acid]
Relative Activity [1]: 94 percentage
quality as substrate of the enzyme (in words) [1]: best substrates

Nc1ccccc1C(=O)O [anthranilic acid, 2-amino benzoic acid]
Ki [2]: 261 ± 30 µM
NADPH oxidation with the compound in place of benzoic acid ([2]; 5 mM in the enzyme assay solution): no NADPH oxidation was observed
type of inhibition ([2]; listed as 2-amino benzoic acid): typical competitive inhibitor
type of inhibition ([2]; listed as Anthranilic acid): competitive inhibitor

O=C(O)c1cccc(C(=O)c2ccccc2)c1 [3-benzoyl-benzoic acid]
Relative Activity [1]: 53 percentage

O=C(O)c1cccc(O)c1 [3-hydroxyl-benzoic acid]
Relative Activity [1]: 77 percentage

O=C(O)c1ccccc1C(=O)c1ccccc1 [2-benzoyl-benzoic acid]
Relative Activity [1]: 0 percentage

O=C(O)c1ccccc1Cl [2-chloro-benzoic acid]
Relative Activity [1]: 3 percentage

COc1cc(C=O)ccc1O [vanillin, 4-hydroxy-3-methoxy-benzaldehyde]
yield of vanillin [3]: 96%
